Assay type in all cases: cell-based
Experiment [1] has as its system Panc-1 (pancreas). Description: in vitro cytotoxicity assay (Cell-Titer-Glo), Panc-1. Conditions: Homo sapiens. The method, then: (§1) To evaluate cell killing of cancer cell lines, an in vitro cytotoxicity assay was performed. The tumor cell lines used were purchased from the American Type Culture Collection, and are identified as follows: Panc-1 (pancreas), MiaPaCa-2 (pancreas), MCF-7 (breast), HT-29 (colon), U2-OS (osteosarcoma), OVCAR-3 (ovary), HepG2 (hepatocellular carcinoma) and TT (medullary thyroid). The assay utilized the Cell-Titer-Glo Non-Radioactive Cell Proliferation Assay (Promega Corp., Madison, Wis.). First the cells were cultured in RPMI 1640 medium (Cat# 21870-076, Invitrogen Corporation) supplemented with 300 mg/L L-glutamine, 100 units/ml penicillin, 100 μg/ml streptomycin and 10% fetal bovine serum. All the cell lines were incubated in a humidified incubator at 37° C. with 5% CO2 atmosphere.
(§2) Cells were plated at a density of 2000 to 10000 cells per well, depending on their growth rate, in 0.09 mL medium on day 0 in 96-well Microlite TCT microtiter plates (7418, Thermo Labsystems, Franklin, Mass.). On day 1, 10 μL of serial dilutions of the individual compounds were added to the plates in replicates of 3. After incubation for 4 days at 37° C. in a humidified incubator, the cells were lysed in the Cell-Titer-Glo reagent, which also contains luciferase enzyme. The luciferase reaction utilizes ATP released from lysed cells to produce light, the intensity of which is linearly related to the amount of ATP. Thus, the amount of light produced is a reflection of the number of cells remaining in the well after drug treatment. This luminescence was measured using a Luminoskan luminometer (Thermo Electron Corp., Vantaa, Finland) Data were expressed as the percentage of survival of control cells calculated from the luminescence corrected for background. The surviving percent of cells was determined by dividing the mean luminescence values of the treated wells by the mean luminescence values of the control and multiplying by 100.
as §1, with “Briefly,” for “To evaluate cell killing of cancer cell lines, an in vitro cytotoxicity assay was performed. The”, “thyroid), PC-3 (prostate) and A549 (lung).” for “thyroid).”
as §1, with “carcinoma), PC-3 (prostate),” for “carcinoma)”, “A549 (lung).” for “TT (medullary thyroid).”
(§3) Cells were plated at a density of 2000 to 10000 cells per well, depending on their growth rate, in 0.09 mL medium on day 0 in 96-well Microlite TCT microtiter plates (#7418, Thermo Labsystems, Franklin, Mass.). On day 1, 10 μL of serial dilutions of the individual compounds were added to the plates in replicates of 3. After incubation for 4 days at 37° C. in a humidified incubator, the cells were lysed in the Cell-Titer-Glo reagent, which also contains luciferase enzyme. […]

For experiment [2], the system named is MCF-7 (breast). The experiment in a line: in vitro cytotoxicity assay (Cell-Titer-Glo), MCF-7. To be noted: Homo sapiens. As for the experimental part: as §1, §2
as §1, with “Briefly,” for “To evaluate cell killing of cancer cell lines, an in vitro cytotoxicity assay was performed. The”, “thyroid), PC-3 (prostate) and A549 (lung).” for “thyroid).”
as §1, with “carcinoma), PC-3 (prostate),” for “carcinoma)”, “A549 (lung).” for “TT (medullary thyroid).”
as §3

Experiment [3] relates to HT-29 (colon). Description: in vitro cytotoxicity assay (Cell-Titer-Glo), HT-29. Conditions: Homo sapiens. The method, then: as §1, §2
as §1, with “Briefly,” for “To evaluate cell killing of cancer cell lines, an in vitro cytotoxicity assay was performed. The”, “thyroid), PC-3 (prostate) and A549 (lung).” for “thyroid).”
as §1, with “carcinoma), PC-3 (prostate),” for “carcinoma)”, “A549 (lung).” for “TT (medullary thyroid).”
as §3

The subject of experiment [4] is PC-3 (prostate). Description: in vitro cytotoxicity assay (Cell-Titer-Glo), PC-3. As for the experimental part: as §1, with “Briefly,” for “To evaluate cell killing of cancer cell lines, an in vitro cytotoxicity assay was performed. The”, “thyroid), PC-3 (prostate) and A549 (lung).” for “thyroid).”
as §2
as §1, with “carcinoma), PC-3 (prostate),” for “carcinoma)”, “A549 (lung).” for “TT (medullary thyroid).”
as §2, with “(#7418,” for “(7418,”, “100. […]” for “100.”

Setting [5] is: PANC-1, 96 h, Example 20, 4 days, read-out: Cell-based IC50 values Panc-1.
Setting [6] is: MCF7, 96 h, Example 20, 4 days, read-out: Cell-based IC50 values MCF-7.
Where [7] appears, read: HT-29, 96 h, Example 20, 4 days, read-out: Cell-based IC50 values HT-29.
[8] abbreviates: 96 h, Example 20, 4 days, read-out: Cell-based IC50 values PC-3.
The mark [9] stands for this setting: PANC-1, 96 h, Table 9, 4 days, read-out: IC50 Panc-1.
[10] abbreviates: MCF7, 96 h, Table 9, 4 days, read-out: IC50 MCF-7.
The mark [11] stands for this setting: HT-29, 96 h, Table 9, 4 days, read-out: IC50 HT-29.
Where [12] appears, read: 96 h, Table 9, 4 days, read-out: IC50 PC-3.

Where two headings read alike, the source gives them in different places. Bounds are passed on as bounds.

Usually IC50 stands for the concentration that inhibits the measured activity by half. With `CC(=O)NS(=O)(=O)c1ccc(NC(=S)N2CCN(c3ncnc4[nH]c5cc(C(F)(F)F)c(Cl)cc5c34)CC2)cc1` [Compound 1-1, 4-(6-Chloro-7-trifluoromethyl-9H-pyrimido[4,5-b]indol-4-yl)-piperazine-1-carbothioic acid (4-acetylsulfamoyl-phenyl)-amide], the IC50 in experiment [1] (PANC-1, 96 h, Example 18, 4 days, read-out: calculated IC50 Panc-1) is 40.7 µM; in experiment [1] (setting [5]) it was 37.5 µM; in experiment [1] (PANC-1, Table 10, 96 hours, read-out: IC50 Panc1 (inhibit cell growth to 50% of untreated)), 40.7 µM; in experiment [2] (MCF7, 96 h, Example 18, 4 days, read-out: calculated IC50 MCF-7) it was 22.5 µM; in experiment [2] (setting [6]), 14.6 µM; in experiment [2] (MCF7, Table 10, 96 hours, read-out: IC50 MCF-7 (inhibit cell growth to 50% of untreated)) it was 22.5 µM. Further, the IC50 in experiment [3] (HT-29, 96 h, Example 18, 4 days, read-out: calculated IC50 HT-29) was 14.7 µM; in experiment [3] (setting [7]), 5.01 µM; in experiment [3] (HT-29, Table 10, 96 hours, read-out: IC50 HT-29 (inhibit cell growth to 50% of untreated)) it was 14.7 µM; in experiment [4] (setting [8]), 52.3 µM; in experiment [4] (Table 10, 96 hours, read-out: IC50 PC-3 (inhibit cell growth to 50% of untreated)) it was 28.4 µM.

`COc1cc2[nH]c3ncnc(N4CCN(C(=S)Nc5ccc(S(=O)(=O)NC(C)=O)cc5)CC4)c3c2cc1OC` [Compound 1-2, 4-(6,7-Dimethoxy-9H-pyrimido[4,5-b]indol-4-yl)-piperazine-1-carbothioic acid (4-acetylsulfamoyl-phenyl)-amide]: the IC50 is 198 µM in experiment [1] (setting [5]), 126 µM in experiment [2] (setting [6]), 93.6 µM in experiment [3] (setting [7]) and 164 µM in experiment [4] (setting [8]).

As for `CC(=O)NS(=O)(=O)c1ccc(NC(=S)N2CCN(c3ncnc4[nH]c5ccc(Cl)cc5c34)CC2)cc1` [Compound 1-3, 4-(6-chloro-9H-pyrimido[4,5-b]indol-4-yl)-piperazine-1-carbothioic acid (4-acetylsulfamoyl-phenyl)-amide], the IC50 in experiment [1] (setting [5]) came to 35.8 µM; in experiment [2] (setting [6]) it was 209 µM; in experiment [3] (setting [7]) it was 29.8 µM; in experiment [4] (setting [8]) it was 47.3 µM.

Regarding `CC(=O)NS(=O)(=O)c1ccc(NC(=S)N2CCN(c3ncnc4[nH]c5cc(F)ccc5c34)CC2)cc1` [Compound 1-4], the IC50 in experiment [1] (setting [5]) is 136 µM; in experiment [2] (setting [6]) it was 249 µM; in experiment [3] (setting [7]), 103 µM; in experiment [4] (setting [8]) it was 160 µM.

In the case of `COc1cc2c(cc1O)[nH]c1ncnc(N3CCN(C(=S)Nc4ccc(S(=O)(=O)NC(C)=O)cc4)CC3)c12` [Compound 1-8], the IC50 worked out at 83.1 µM in experiment [2] (setting [6]) and 27.3 µM in experiment [3] (setting [7]).

`COc1cc2[nH]c3ncnc(N4CCN(C(=S)Nc5ccc(S(=O)(=O)N6CCOCC6)cc5)CC4)c3c2cc1OC` [Compound 1-26]: the IC50 stood at 139 µM in experiment [1] (setting [5]), 14.7 µM in experiment [2] (setting [6]), 176 µM in experiment [3] (setting [7]) and 22.3 µM in experiment [4] (setting [8]).

Regarding `COc1cc2[nH]c3ncnc(N4CCN(C(=S)Nc5ccc(NC(=O)C6CC6)cc5)CC4)c3c2cc1OC` [Compound 1-34], the IC50 in experiment [1] (setting [5]) was 125 µM; in experiment [2] (setting [6]), 76.9 µM; in experiment [3] (setting [7]), 138 µM; in experiment [4] (setting [8]), 21.9 µM.

For `COc1cc2[nH]c3ncnc(N4CCN(C(=S)Nc5ccc(NC(C)=O)cc5)CC4)c3c2cc1OC` [Compound 1-42], the IC50 in experiment [1] (setting [5]) turned out to be 216 µM; in experiment [2] (setting [6]) it was 4.62 µM; in experiment [3] (setting [7]), 140 µM; in experiment [4] (setting [8]) it was 189 µM.

As for `COc1cc2[nH]c3ncnc(N4CCN(C(=S)Nc5ccc(S(N)(=O)=O)cc5)CC4)c3c2cc1OC` [Compound 1-107], the IC50 is 300 µM in experiment [1] (setting [5]), > 300 µM in experiment [2] (setting [6]), > 300 µM in experiment [3] (setting [7]) and 2.33 µM in experiment [4] (setting [8]).

With `COc1cc2[nH]c3ncnc(N4CCN(C(=S)Nc5ccc(S(C)(=O)=O)cc5)CC4)c3c2cc1OC` [Compound 1-115], the IC50 came out at 49.8 µM in experiment [1] (setting [5]), 87.8 µM in experiment [2] (setting [6]), 97.4 µM in experiment [3] (setting [7]) and 75.7 µM in experiment [4] (setting [8]).

With `COc1cc2[nH]c3ncnc(N4CCN(C(=S)Nc5ccc(S(=O)(=O)Nc6ccc(F)cc6)cc5)CC4)c3c2cc1OC` [Compound 2-3, 4-(6,7-dimethoxy-9H-pyrimido[4,5-b]indol-4-yl)-N-(4-(N-(4-fluorophenyl)sulfamoyl)phenyl)piperazine-1-carbothioamide], the IC50 in experiment [1] (setting [9]) was 22.3 µM; in experiment [2] (setting [10]) it was 8.43 µM; in experiment [3] (setting [11]), 6.42 µM; in experiment [4] (setting [12]), 8.78 µM.

Turning to `COc1ccc2c(c1)[nH]c1ncnc(N3CCN(C(=S)Nc4ccc(S(=O)(=O)Nc5ccc(F)cc5)cc4)CC3)c12` [Compound 2-5, 4-(7-methoxy-9H-pyrimido[4,5-b]indol-4-yl)-N-(4-(N-(4-fluorophenyl)sulfamoyl)phenyl)piperazine-1-carbothioamide], the IC50 in experiment [1] (setting [9]) amounted to 10.7 µM; in experiment [2] (setting [10]) it was 8.11 µM; in experiment [3] (setting [11]) it was 6.93 µM; in experiment [4] (setting [12]), 7.68 µM.

As to `Cc1ccc(NS(=O)(=O)c2ccc(NC(=S)N3CCN(c4ncnc5[nH]c6cc(Cl)c(N7CCOCC7)cc6c45)CC3)cc2)cc1` [Compound 2-9, 4-(7-chloro-6-morpholino-9H-pyrimido[4,5-b]indol-4-yl)-N-(4-(N-tolylsulfamoyl)phenyl)piperazine-1-carbothioamide], the IC50 in experiment [1] (setting [9]) was 85.2 µM; in experiment [2] (setting [10]), 8.21 µM; in experiment [3] (setting [11]) it was 8 µM; in experiment [4] (setting [12]) it was 8.25 µM.
